These results are taken from ChEMBL document CHEMBL6078730, “Exploring the antiproliferative and proapoptotic activities of new pyridopyrimidine derivatives and their analogs” (Bioorg Med Chem, 2025).

Data set [1] concerns T47D. The data set can be described thus: Induction of apoptosis in human T47D cells assessed as increase in necrotic cells at IC50 concentration incubated for 48 hrs by AnnexinV-FITC/PI staining based flow cytometry (reference value: 1.42%). The data set is classed as functional. For orientation: In flow cytometry, cells or beads pass a laser one at a time.
For data set [2], the system named is T47D. Description: Induction of cell cycle arrest in human T47D cells assessed as decrease in accumulation of cells at G0-G1 phase at IC50 concentration incubated for 48 hrs by […]PI staining based flow cytometry analysis (reference value: 52.84%). The data set is classed as functional. Further details: scale not given: the % may be the effect or the level left.

For data set [3], the target named is Phosphatidylinositol 4,5-bisphosphate 3-kinase catalytic subunit beta isoform (Homo sapiens, UniProt P42338). Description: Inhibition of PI3K beta (unknown origin) using PIP2 as substrate preincubated for 10 mins followed by substrate addition and measured after 1 hrs by colorimetric analysis.
The target in data set [4] is Phosphatidylinositol 4,5-bisphosphate 3-kinase catalytic subunit gamma isoform (Homo sapiens, UniProt P48736). Description: Inhibition of PI3K gamma (unknown origin) using PIP2 as substrate preincubated for 10 mins followed by substrate addition and measured after 1 hrs by colorimetric analysis.
The subject of data set [5] is T47D. The data set can be described thus: Induction of cell cycle arrest in human T47D cells assessed as increase in accumulation of cells at G2-M phase at IC50 concentration incubated for 48 hrs by […]PI staining based flow cytometry analysis (reference value: 17.28%). The data set is classed as functional.
The subject of data set [6] is T47D. Description: Induction of apoptosis in human T47D cells assessed as increase in p53 expression at IC50 concentration incubated for 48 hrs by Western blotting analysis. The data set is classed as functional, cell-based. (Immunoblotting shows a protein as a band on a membrane.)
For data set [7], the system named is T47D. Description: Antiproliferative activity against human T47D cells assessed as inhibition of cell proliferation incubated for 24 hrs by MTT assay. The data set is classed as functional, cell-based. Background: Formazan colour is commonly taken as a measure of viable cells.
Data set [8] deals with T47D. The data set can be described thus: Induction of cell cycle arrest in human T47D cells assessed as decrease in accumulation of cells at S phase at IC50 concentration incubated for 48 hrs by […]PI staining based flow cytometry analysis (reference value: 29.88%). Further details: scale not given: the % may be the effect or the level left. It is filed as functional.

Data set [9] concerns T47D. The data set can be described thus: Induction of apoptosis in human T47D cells assessed as increase in late apoptotic cells at IC50 concentration incubated for 48 hrs by AnnexinV-FITC/PI staining based flow cytometry (reference value: 0.13%). The data set is classed as functional.
Data set [10] concerns the target T1, Phosphatidylinositol 4,5-bisphosphate 3-kinase catalytic subunit delta isoform (Homo sapiens, UniProt O00329).
T1 sequence (O00329 whole entry): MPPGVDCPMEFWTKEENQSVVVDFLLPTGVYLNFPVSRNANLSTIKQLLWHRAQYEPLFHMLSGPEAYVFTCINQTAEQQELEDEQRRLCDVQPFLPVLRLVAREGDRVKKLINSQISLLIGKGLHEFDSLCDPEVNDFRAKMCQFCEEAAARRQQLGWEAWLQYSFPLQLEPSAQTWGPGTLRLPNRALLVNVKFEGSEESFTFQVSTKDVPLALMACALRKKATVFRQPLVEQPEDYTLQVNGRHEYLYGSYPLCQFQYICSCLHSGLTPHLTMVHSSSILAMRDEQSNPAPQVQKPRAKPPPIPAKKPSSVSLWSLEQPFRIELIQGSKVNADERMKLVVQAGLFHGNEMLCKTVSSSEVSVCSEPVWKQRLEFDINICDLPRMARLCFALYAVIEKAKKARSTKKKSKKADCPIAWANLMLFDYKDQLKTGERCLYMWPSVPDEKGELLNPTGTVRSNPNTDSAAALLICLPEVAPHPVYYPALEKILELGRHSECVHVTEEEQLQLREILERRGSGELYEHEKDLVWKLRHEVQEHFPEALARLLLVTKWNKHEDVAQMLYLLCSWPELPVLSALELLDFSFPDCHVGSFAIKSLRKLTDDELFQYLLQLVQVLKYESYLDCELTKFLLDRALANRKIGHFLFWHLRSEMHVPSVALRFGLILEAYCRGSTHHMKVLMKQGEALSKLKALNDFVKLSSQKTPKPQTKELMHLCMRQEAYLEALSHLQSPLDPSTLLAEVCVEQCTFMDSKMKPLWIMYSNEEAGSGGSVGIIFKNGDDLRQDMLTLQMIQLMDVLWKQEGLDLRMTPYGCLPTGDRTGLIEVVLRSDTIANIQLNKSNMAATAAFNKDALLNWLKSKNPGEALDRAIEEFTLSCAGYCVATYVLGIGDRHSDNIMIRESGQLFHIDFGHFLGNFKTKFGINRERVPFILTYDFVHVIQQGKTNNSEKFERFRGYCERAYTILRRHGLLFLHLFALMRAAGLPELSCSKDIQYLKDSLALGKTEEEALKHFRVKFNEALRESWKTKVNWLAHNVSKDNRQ
The data set can be described thus: Inhibition of PI3K delta (unknown origin) using PIP2 as substrate preincubated for 10 mins followed by substrate addition and measured after 1 hrs by colorimetric analysis.

Data set [11] in a line: Selectivity index, ratio of IC50 for human MCF-10A cells to IC50 for human T47D cells. The data set is classed as toxicity. Conditions: MCF-10A cells versus T47D cells, read-out: Ratio IC50.
Data set [12] concerns T47D. Description: Induction of apoptosis in human T47D cells assessed as increase in Bax/Bcl-2 ratio at IC50 concentration incubated for 48 hrs by Western blotting analysis. It is filed as functional, cell-based.
Data set [13] has as its system T47D. The data set can be described thus: Induction of apoptosis in human T47D cells assessed as increase in Bax expression at IC50 concentration incubated for 48 hrs by Western blotting analysis. The data set is classed as functional, cell-based.
The test system of data set [14] is T47D. The data set can be described thus: Antiproliferative activity against human T47D cells assessed as reduction in cell growth inhibition at 10 uM incubated for 24 hrs by MTT assay relative to control. It is filed as functional. The conditions noted are these: read-out: GI.
In data set [15] the target is Phosphatidylinositol 4,5-bisphosphate 3-kinase catalytic subunit alpha isoform (Homo sapiens, UniProt P42336). The data set can be described thus: Inhibition of PI3K alpha (unknown origin) using PIP2 as substrate preincubated for 10 mins followed by substrate addition and measured after 1 hrs by colorimetric analysis.
For data set [16], the system named is T47D. The data set can be described thus: Induction of apoptosis in human T47D cells assessed as inhibition in Bcl2 expression at IC50 concentration incubated for 48 hrs by Western blotting analysis. The data set is classed as functional, cell-based.
For data set [17], the system named is T47D. Description: Induction of apoptosis in human T47D cells assessed as fold increase in ratio of apoptotic cells incubated for 48 hrs by AnnexinV-FITC/PI staining based flow cytometry. It is filed as functional.
The subject of data set [18] is T47D. Description: Induction of apoptosis in human T47D cells assessed as increase in early apoptotic cells at IC50 concentration incubated for 48 hrs by AnnexinV-FITC/PI staining based flow cytometry (reference value: 0.64%). The data set is classed as functional.
Data set [19] is described as follows: Upregulation of Bax expression in human T47D cells assessed as fold change at IC50 concentration incubated for 48 hrs by Western blotting analysis. It is filed as functional.
The nature of data set [20]: Cytotoxicity against human MCF-10A cells assessed as reduction in cell viability at 10 uM incubated for 24 hrs by MTT assay. It is filed as toxicity, cell-based.
Data set [21] is described as follows: Downregulation of Bcl-2 expression in human T47D cells assessed as fold change at IC50 concentration incubated for 48 hrs by Western blotting analysis. It is filed as functional.
The test system of data set [22] is T47D. The data set can be described thus: Induction of apoptosis in human T47D cells assessed as decrease in viable cells at IC50 concentration incubated for 48 hrs by AnnexinV-FITC/PI staining based flow cytometry relative to control. The data set is classed as functional, cell-based.
Another data set relates to MDA-MB-435. The data set can be described thus: Antiproliferative activity against human MDA-MB-435 cells assessed as reduction in cell growth inhibition at 10 uM incubated for 24 hrs by MTT assay relative to control. It is filed as functional. Conditions: read-out: GI.
The next data set concerns NCI-H23. Description: Antiproliferative activity against human NCI-H23 cells assessed as reduction in cell growth inhibition at 10 uM incubated for 24 hrs by MTT assay relative to control. It is filed as functional. The conditions noted are these: read-out: GI.

Values after ≈ are worked out from the molar mass of the structure shown. Active and inactive are the calls of the source. The rule behind the calls is not given here.

Phosphatidylinositol 4,5-bisphosphate 3-kinase catalytic subunit alpha isoform, sequence (P42336 whole entry, canonical isoform): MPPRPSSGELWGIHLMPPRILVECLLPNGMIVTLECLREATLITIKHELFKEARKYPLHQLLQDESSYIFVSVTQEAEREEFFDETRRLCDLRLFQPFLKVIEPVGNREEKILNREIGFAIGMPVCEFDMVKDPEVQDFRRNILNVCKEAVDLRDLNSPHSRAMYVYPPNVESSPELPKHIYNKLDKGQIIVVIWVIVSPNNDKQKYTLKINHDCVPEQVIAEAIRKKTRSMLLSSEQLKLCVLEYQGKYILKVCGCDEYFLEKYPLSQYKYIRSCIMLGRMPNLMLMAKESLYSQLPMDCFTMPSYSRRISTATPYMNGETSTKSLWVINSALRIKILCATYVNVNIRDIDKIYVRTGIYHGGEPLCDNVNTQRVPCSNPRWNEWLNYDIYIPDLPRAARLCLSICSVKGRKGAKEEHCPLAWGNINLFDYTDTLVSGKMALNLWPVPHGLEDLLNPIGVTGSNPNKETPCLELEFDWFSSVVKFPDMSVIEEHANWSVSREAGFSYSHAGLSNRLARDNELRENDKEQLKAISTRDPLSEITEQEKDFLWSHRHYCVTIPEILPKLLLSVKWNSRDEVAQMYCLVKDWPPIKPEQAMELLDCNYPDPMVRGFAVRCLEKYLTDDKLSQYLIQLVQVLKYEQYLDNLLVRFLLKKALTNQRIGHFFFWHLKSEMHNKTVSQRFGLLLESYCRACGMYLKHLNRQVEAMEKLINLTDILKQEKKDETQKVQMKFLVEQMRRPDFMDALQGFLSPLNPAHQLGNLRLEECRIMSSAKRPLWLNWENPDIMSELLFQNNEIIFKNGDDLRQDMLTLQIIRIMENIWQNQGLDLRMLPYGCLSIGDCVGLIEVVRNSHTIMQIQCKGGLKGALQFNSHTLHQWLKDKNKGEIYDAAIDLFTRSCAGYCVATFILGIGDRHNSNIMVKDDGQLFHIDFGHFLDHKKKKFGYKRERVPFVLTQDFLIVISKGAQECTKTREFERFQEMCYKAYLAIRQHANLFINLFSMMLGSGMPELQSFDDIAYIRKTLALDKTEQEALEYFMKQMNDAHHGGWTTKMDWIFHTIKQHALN
Phosphatidylinositol 4,5-bisphosphate 3-kinase catalytic subunit beta isoform, sequence (P42338 whole entry, canonical isoform): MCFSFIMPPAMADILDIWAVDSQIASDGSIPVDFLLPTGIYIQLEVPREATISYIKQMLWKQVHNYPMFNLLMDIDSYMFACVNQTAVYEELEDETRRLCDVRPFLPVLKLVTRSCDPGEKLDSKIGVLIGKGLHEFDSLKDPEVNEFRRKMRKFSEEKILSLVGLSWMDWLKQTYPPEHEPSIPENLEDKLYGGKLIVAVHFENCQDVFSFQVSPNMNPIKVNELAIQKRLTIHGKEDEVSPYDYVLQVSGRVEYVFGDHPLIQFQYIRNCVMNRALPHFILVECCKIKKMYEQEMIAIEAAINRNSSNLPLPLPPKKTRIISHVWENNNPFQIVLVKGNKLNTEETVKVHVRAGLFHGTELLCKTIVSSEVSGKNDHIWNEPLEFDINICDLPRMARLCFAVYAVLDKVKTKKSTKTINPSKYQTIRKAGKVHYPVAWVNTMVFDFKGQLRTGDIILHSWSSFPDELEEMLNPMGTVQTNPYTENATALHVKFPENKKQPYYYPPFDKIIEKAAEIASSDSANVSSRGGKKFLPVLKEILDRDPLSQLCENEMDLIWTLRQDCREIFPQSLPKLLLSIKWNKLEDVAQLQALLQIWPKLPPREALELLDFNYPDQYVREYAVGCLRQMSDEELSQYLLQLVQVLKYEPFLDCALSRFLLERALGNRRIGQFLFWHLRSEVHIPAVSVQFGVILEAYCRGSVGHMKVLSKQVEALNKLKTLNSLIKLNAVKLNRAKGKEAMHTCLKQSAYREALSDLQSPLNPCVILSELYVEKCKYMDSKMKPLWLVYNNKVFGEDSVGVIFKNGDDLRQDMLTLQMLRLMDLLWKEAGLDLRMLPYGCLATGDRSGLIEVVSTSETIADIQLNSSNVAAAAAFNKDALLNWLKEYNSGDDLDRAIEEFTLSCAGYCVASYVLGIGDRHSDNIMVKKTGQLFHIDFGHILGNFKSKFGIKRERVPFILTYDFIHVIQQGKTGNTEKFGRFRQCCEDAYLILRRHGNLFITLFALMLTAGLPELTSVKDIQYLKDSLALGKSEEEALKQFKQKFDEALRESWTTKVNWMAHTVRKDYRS
Phosphatidylinositol 4,5-bisphosphate 3-kinase catalytic subunit gamma isoform, sequence (P48736 whole entry, canonical isoform): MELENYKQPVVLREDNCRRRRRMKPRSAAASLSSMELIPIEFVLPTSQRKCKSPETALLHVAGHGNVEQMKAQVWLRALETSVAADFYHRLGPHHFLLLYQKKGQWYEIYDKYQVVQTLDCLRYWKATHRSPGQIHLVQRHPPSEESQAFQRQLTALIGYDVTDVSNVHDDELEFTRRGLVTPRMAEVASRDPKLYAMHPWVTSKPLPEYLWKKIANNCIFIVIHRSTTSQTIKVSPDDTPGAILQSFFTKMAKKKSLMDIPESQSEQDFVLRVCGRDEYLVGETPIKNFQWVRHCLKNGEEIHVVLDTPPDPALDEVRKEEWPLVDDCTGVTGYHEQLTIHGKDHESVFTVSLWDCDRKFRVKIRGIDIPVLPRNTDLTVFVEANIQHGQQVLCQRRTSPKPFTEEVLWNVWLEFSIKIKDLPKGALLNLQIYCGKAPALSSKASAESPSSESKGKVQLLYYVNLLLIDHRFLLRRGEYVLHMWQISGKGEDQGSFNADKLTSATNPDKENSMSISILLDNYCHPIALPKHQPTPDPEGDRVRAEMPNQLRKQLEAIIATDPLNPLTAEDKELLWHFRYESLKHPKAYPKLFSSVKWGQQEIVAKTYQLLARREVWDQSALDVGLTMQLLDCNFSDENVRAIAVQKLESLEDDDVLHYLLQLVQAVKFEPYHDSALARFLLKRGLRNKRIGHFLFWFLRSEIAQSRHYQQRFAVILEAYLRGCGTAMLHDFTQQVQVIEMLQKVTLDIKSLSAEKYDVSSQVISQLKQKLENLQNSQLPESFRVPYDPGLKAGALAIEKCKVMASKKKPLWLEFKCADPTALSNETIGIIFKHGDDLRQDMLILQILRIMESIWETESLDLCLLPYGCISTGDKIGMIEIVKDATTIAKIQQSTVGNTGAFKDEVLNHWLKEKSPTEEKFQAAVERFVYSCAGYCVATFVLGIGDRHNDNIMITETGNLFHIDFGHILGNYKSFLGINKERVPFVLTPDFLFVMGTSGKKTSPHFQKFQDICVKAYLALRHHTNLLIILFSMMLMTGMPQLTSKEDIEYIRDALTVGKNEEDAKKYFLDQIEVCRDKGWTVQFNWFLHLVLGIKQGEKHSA

Regarding `O=c1[nH]c(=S)[nH]c2nc(-c3ccc(Cl)cc3)ccc12`, the Activity turned out to be 6.88% with T47D [1]; 45.11% in the data set with T47D [2]; 28.02% in the data set on T47D [5]; 26.87% with T47D [8]; 11.51% with T47D [9]; 18.83% in the data set on T47D [18]. For the same molecule, the IC50 in data set [3] is 7.69 µM; in [4], 2.12 µM; in the data set on T47D [7], 1.46 µg/mL (≈ 5.04 µM); in data set [10] it was 40.9 µM; in data set [15], 0.632 µM. Besides, the outcome in the data set on T47D [6], in the data set with T47D [12], in the data set with T47D [13], in the data set on T47D [16] and with T47D [22] was Active. In addition, in data set [11], the selectivity ratio amounted to 289. The inhibition of growth at 10 µM in the data set with T47D [14] came out at 81%. In addition, the “fold change (FC)” value in the data set with T47D [17] was approximately 37; in data set [19] it was 2.38; in [21], 0.69. Moreover, the IC50 at 24 h in data set [20] turned out to be 422 µg/mL (≈ 1460 µM).

`O=c1[nH]c(=S)[nH]c2nc(-c3ccccc3)ccc12`: the IC50 in the data set on T47D [7] was found to be 16.1 µg/mL (≈ 63 µM). In addition, the inhibition of growth at 10 µM in the data set with T47D [14] was found to be 50%.

In the case of `CS(=O)(=O)N1CCN(Cc2cc3nc(-c4cccc5[nH]ncc45)nc(N4CCOCC4)c3s2)CC1` [PICTILISIB], the IC50 in the data set on T47D [7] was 2.56 µg/mL (≈ 4.98 µM).

For `O=C(C1=CNC(=S)NC1c1ccc(F)cc1)c1ccc(F)cc1` (stereo not given), the inhibition of growth at 10 µM with MDA-MB-435 worked out at 63%.

`O=c1[nH]c(=S)[nH]c2nc(-c3ccc(Br)cc3)ccc12`: in the data set with T47D [7], the IC50 is 9.62 µg/mL (≈ 28.8 µM). Also, the inhibition of growth at 10 µM in the data set with T47D [14] came to 81%.

For the molecule `O=C(C1=CNC(=S)NC1c1ccc(F)cc1)c1ccc(Cl)cc1` (stereo not given), the inhibition of growth at 10 µM in the data set with MDA-MB-435 worked out at 63%.

For `O=c1[nH]c(=S)[nH]c2nc(-c3ccc(F)cc3)ccc12`, the IC50 in the data set with T47D [7] came out at 6.09 µg/mL (≈ 22.3 µM). In the data set with T47D [14], the inhibition of growth at 10 µM is 81%.

On to `Cc1ccc(-c2ccc3c(=O)[nH]c(=S)[nH]c3n2)cc1`, for which the IC50 with T47D [7] was 18.4 µg/mL (≈ 68.4 µM). For the same molecule, in the data set with T47D [14], the inhibition of growth at 10 µM worked out at 81%.

As to `O=c1[nH]c(=S)[nH]c2nc(-c3ccc([N+](=O)[O-])cc3)ccc12`, the IC50 in the data set on T47D [7] was 22.1 µg/mL (≈ 73.7 µM). Also, in the data set on T47D [14], the inhibition of growth at 10 µM turned out to be 81%.

As for `Cc1ccc(C(=O)C2=CNC(=S)NC2c2ccc(O)cc2)cc1` (stereo not given), the inhibition of growth at 10 µM in the data set with MDA-MB-435 stood at 184%.

Take `O=C(C1=CNC(=S)NC1c1ccc(F)cc1)c1ccccc1` (stereo not given): the inhibition of growth at 10 µM in the data set on MDA-MB-435 was determined as 63%.

As for `Cc1ccc(C(=O)C2=CNC(=O)NC2c2ccc(O)cc2)cc1` (stereo not given), the inhibition of growth at 10 µM in the data set on NCI-H23 was 114%.

Regarding `COc1ccc(-c2ccc3c(=O)[nH]c(=S)[nH]c3n2)cc1`, the IC50 in the data set on T47D [7] was found to be 52.7 µg/mL (≈ 185 µM). Moreover, in the data set with T47D [14], the inhibition of growth at 10 µM stood at 81%.

A word on the IC50: it is the concentration that inhibits the measured activity by half.
